The source of these data is US6825191B2, “Benzodiazepine derivatives” (Ajinomoto Co., Inc., priority 2000, dated 2004).

The test system of one assay is blood plasma. Nature of the assay: Determination of blood anticoagulating activity by prothrombin time (PT) determination method. The assay is classed as biochemical, human. Particulars: negative logarithm of concentration which elongated PT of the control to twice as long; blood plasma of healthy people. As for the experimental part: Determination of Blood Anticoagulating Activity
The blood anticoagulating activity was determined by a prothrombin time (PT) determination method. The PT was determined as follows: The blood was taken from healthy people. 3.8% aqueous trisodium citrate solution was added to the blood in a volume ratio of 1:10. The blood plasma was separated by the centrifugation. 5 μl of DMSO solution containing a test compound was added to 45 μl of the blood plasma. After the incubation apt room temperature for 2 minutes, a test tube containing the blood plasma solution was placed in Sysmex CA-3000 fully automatic blood coagulation determination device (a product of Toa Medical Electronics Co., Ltd), and incubated at 37° C. for 3 minutes. 100 μl of Sysmex PT II (rabbit brain tissue thromboplastin, 13.2 mM calcium chloride; a product of Toa Medical Electronics Co., Ltd) was fed into the test tube. PT was automatically determined with the device. A sample containing 5 μl of DMSO in place of the solution of the test compound was used as the control. The negative logarithm (pPT2) of the concentration of the test compound which elongated PT of the control to the twice as long was determined, and employed as the index of the blood anticoagulating activity.

A further assay addresses T1, human thrombin (Homo sapiens, UniProt P00734).
T1 construct: solution of human thrombin (a product of SIGMA Co.); purchased SIGMA Co
Nature of the assay: Determination of thrombin-inhibiting activity (chromogenic substrate S-2238, initial rate). Type of assay: biochemical. To be noted: negative logarithm of concentration inhibiting 50% of initial rate, tris hydrochloride buffer pH 8.4, room temperature; for IC50: read-out: Thrombin-inhibiting activity (pIC50) (converted). As for the experimental part:
Determination of Thrombin-inhibiting Activity
130 μL of 100 mM tris hydrochloride buffer adjusted to pH 8.4 was added to 10 μl of an aqueous solution of a test compound. Then 10 μl of a solution of human thrombin (a product of SIGMA Co.) adjusted to 2 units/ml with tris hydrochloride buffer of pH 8.4 was added to the resultant mixture. After the incubation at room temperature for 10 minutes, 50 μl of a solution of D-phenylalanine-L-pipecolyl-L-arginine-P-nitroanilide dihydrochloride (S-2238; a product of Daiichi Kagaku Yakuhin Co.) adjusted to 0.4 mM with tris hydrochloride buffer of pH 8.4 was added thereto. The absorbance was determined and then the initial reaction rate was determined. A control was prepared in the same manner as that described above except that the solution of the compound to be tested was replaced with 10 μl of tris hydrochloride buffer adjusted to pH 8.4. The absorbance was determined with MICROPLATE READER Model 3550-UV (a product of BIO RAD) at a wave length of 405 nm at intervals of 15 seconds for 16 minutes. The negative logarithm (pIC50) of a concentration of the test compound which inhibits 50% of the activity (initial rate) of the thrombin in the absence of the test compound was determined, and employed as the index of the activity of inhibiting thrombin.

In assay [1] the target is T2, activated human blood coagulation factor X (Homo sapiens, UniProt P00742).
T2 construct: purchased Enzyme Research Co
T2 sequence (P00742 235-488 limits assumed): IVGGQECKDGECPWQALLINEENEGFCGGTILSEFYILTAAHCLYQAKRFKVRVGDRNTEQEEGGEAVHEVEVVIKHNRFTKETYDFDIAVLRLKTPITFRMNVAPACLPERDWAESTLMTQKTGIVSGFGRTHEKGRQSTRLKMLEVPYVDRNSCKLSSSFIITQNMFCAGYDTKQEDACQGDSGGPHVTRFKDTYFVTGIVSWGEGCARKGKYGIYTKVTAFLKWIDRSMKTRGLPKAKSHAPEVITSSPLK
T2 sequence (P00742 41-179 partner limits assumed): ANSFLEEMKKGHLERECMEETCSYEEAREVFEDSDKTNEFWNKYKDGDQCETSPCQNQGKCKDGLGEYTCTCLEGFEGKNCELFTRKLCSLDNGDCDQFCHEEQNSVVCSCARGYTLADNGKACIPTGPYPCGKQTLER
Nature of the assay: Determination of activity of inhibiting the activated blood-coagulation factor X (chromogenic substrate, initial rate). To be noted: negative logarithm of concentration inhibiting 50% of initial rate, tris hydrochloride buffer pH 8.4, room temperature; for IC50: read-out: Activity of inhibiting activated blood coagulation factor X (pIC50) (converted). Type of assay: biochemical. As for the experimental part:
Determination of Activity of inhibiting the Activated Blood-coagulation Factor X
130 μl of 100 mM tris hydrochloride buffer adjusted to pH 8.4 was added to 10 μl of an aqueous solution of a compound to be tested. Then 10 μl of a 0.5 unit/ml solution of activated human blood coagulation factor X (a product of Enzyme Research Co.) in tris hydrochloride buffer of pH 8.4 was added to the resultant mixture. After the incubation at room temperature for 10 minutes, 50 μl of a solution of N-benzoyl-L-isoleucyl-L-glutamyl-glycyl-L-arginyl-P-nitroanilide hydrochloride (a product of Peptide Institute Inc.) adjusted to 0.8 mM with tris hydrochloride (pH 8.4) was added thereto. The a absorbance was determined and then the initial reaction rate was determined. A control was prepared in the same manner as that described above except that the solution of the compound to be tested was replaced with 10 μl of tris hydrochloride buffer adjusted to pH 8.4. The absorbance was determined with MICROPLATE READER Model 3550-UV (a product of BIO RAD) at a wave length of 405 nm at intervals of 15 seconds for 16 minutes.

Structures can show the parent of a compound that is named as a salt.

Turning to “4-(4-chlorobenzoyl)-1-[4-(1-acetoimidoyl)-4-piperidyloxy]benzyl]-1,3,4,5-tetrahydrobenzo[e][1,4]diazepin-2-on trifluoroacetate [Compd. of Ex. 27]”, in the assay on blood plasma, the “Human blood anticoagulating activity (pPT2)” value is on record as 4.8. Besides, on human thrombin, the “Thrombin-inhibiting activity (pIC50)” value is under 4.0. The “Activity of inhibiting activated blood coagulation factor X (pIC50)” value in assay [1] turned out to be 6.4.

On to `O=C(O)C(F)(F)F.O=C(c1ccc(Cl)cc1)N1CC(=O)N(CC2CCN(c3ccncc3)CC2)c2ccccc2C1` [Compd. of Ex. 2, 4-(4-chlorobenzoyl)-1-[1-(4-pyridyl)-4-piperidylmethyl]-1,3,4,5-tetrahydrobenzo[e][1,4]diazepin-2-on trifluoroacetate], for which, in the assay with blood plasma, the “Human blood anticoagulating activity (pPT2)” value is on record as 4.9. The IC50 at human thrombin was over 100000 nM; in assay [1], 398 nM.

Regarding `O=C(O)C(F)(F)F.O=C(c1ccc(Br)cc1)N1CC(=O)N(CC2CCN(c3ccncc3)CC2)c2ccccc2C1` [Compd. of Ex. 9, 4-(4-bromobenzoyl)-1-[1-(4-pyridyl)-4-piperidylmethyl]-1,3,4,5-tetrahydrobenzo[e][1,4]diazepin-2-on trifluoroacetate], in the assay on blood plasma, the “Human blood anticoagulating activity (pPT2)” value is listed as 4.9. The values for the IC50 (at human thrombin; in assay [1]) were over 100000 nM and 501 nM, respectively.

As for `O=C(c1ccc(Cl)s1)N1CC(=O)N(CC2CCN(c3ccncc3)CC2)c2ccccc2C1` [Compd. of Ex. 24, 4-(5-chlorothiophene-2-carbonyl)-1-[1-(4-pyridyl)-4-piperidylmethyl]-1,3,4,5-tetrahydrobenzo[e][1,4]diazepin-2-on trifluoroacetate], the results for the IC50 (at human thrombin; in assay [1]) were over 100000 nM and 794 nM, respectively.

With `O=C(O)C(F)(F)F.O=C(c1ccc(Br)s1)N1CC(=O)N(CC2CCN(c3ccncc3)CC2)c2ccccc2C1` [Compd. of Ex. 25, 4-(5-bromothiophene-2-carbonyl)-1-[1-(4-pyridyl)-4-piperidylmethyl]-1,3,4,5-tetrahydrobenzo[e][1,4]diazepin-2-on trifluoroacetate], in the assay with blood plasma, the “Human blood anticoagulating activity (pPT2)” value worked out at 4.9. Moreover, the IC50 at human thrombin is over 100000 nM; in assay [1], 398 nM.

For the compound `CC(=N)N1CCC(Oc2ccc(CN3C(=O)CN(C(=O)c4ccc(Cl)cc4)Cc4c(Cl)cccc43)cc2)CC1.O=C(O)C(F)(F)F` [Compd. of Ex. 39, 6-chloro-4-(4-chlorobenzoyl)-1-[4-(1-(1-acetimidoyl)-4-piperidyloxy)benzyl]-1,3,4,5-tetrahydrobenzo[e][1,4]diazepin-2-on trifluoroacetate], the “Human blood anticoagulating activity (pPT2)” value in the assay with blood plasma came to 4.8. Also, at human thrombin, the “Thrombin-inhibiting activity (pIC50)” value is under 4.0. The “Activity of inhibiting activated blood coagulation factor X (pIC50)” value in assay [1] was 6.7.

In the case of `CC(=N)N1CCC(Oc2ccc(CN3C(=O)CN(C(=O)c4ccc(Cl)cc4)Cc4ccc(C(=O)O)cc43)cc2)CC1.O=C(O)C(F)(F)F` [Compd. of Ex. 43, 4-(4-chlorobenzoyl)-2-oxo-1-[4-(1-(1-acetimidoyl)-4-piperidyloxy)benzyl]-2,3,4,5-tetrahydro-1H-benzo[e][1,4]-diazepine-8-carboxylic acid trifluoroacetate], the “Human blood anticoagulating activity (pPT2)” value with blood plasma amounted to 5.2. Moreover, the “Thrombin-inhibiting activity (pIC50)” value on human thrombin is under 4.0. Moreover, the “Activity of inhibiting activated blood coagulation factor X (pIC50)” value in assay [1] came to 6.9.

Consider `O=C(c1ccc(CN2C(=O)CN(C(=O)c3ccc(Cl)cc3)Cc3ccccc32)cc1)N1CC=CC1` [Compd. of Ex. 49, 1-[4-(2,5-dihydro-1H-pyrrol-1-ylcarbonyl)benzyl]-4-(4-chlorobenzoyl)-1,3,4,5-tetrahydrobenzo[e][1,4]-diazepin-2-on], for which the “Human blood anticoagulating activity (pPT2)” value with blood plasma is listed as 5.0. For the same compound, the IC50 at human thrombin is 50100 nM; in assay [1], 31.6 nM.

Turning to `O=C(O)CCc1ccc2c(c1)N(Cc1ccc(C(=O)N3CC=CC3)cc1)C(=O)CN(C(=O)c1ccc(Cl)cc1)C2` [Compd. of Ex. 65, 3-[4-(4-chlorobenzoyl)-2-oxo-1-[4-(2,5-dihydro-1H-pyrrol-1-ylcarbonyl)benzyl]-2,3,4,5-tetrahydro-1H-benzo[e][1,4]-diazepin-8-yl]propionic acid], the “Human blood anticoagulating activity (pPT2)” value in the assay with blood plasma came out at 4.7. The IC50 in assay [1] was 39.8 nM.

For the compound `O=C(CCc1ccc2c(c1)N(Cc1ccc(C(=O)N3CC=CC3)cc1)C(=O)CN(C(=O)c1ccc(Cl)cc1)C2)N1CCOCC1` [Compd. of Ex. 68, 4-(4-chlorobenzoyl)-8-(3-morpholine-4-yl-3-oxopropyl)-1-[4-(2,5-dihydro-1H-pyrrol-1-ylcarbonyl)benzyl]-1,3,4,5-tetrahydrobenzo[e][1,4]diazepin-2-on], the “Human blood anticoagulating activity (pPT2)” value in the assay on blood plasma is reported as 5.2. The IC50 was 63100 nM on human thrombin and 39.8 nM in assay [1].

In the case of `O=C(c1ccc(CN2C(=O)CN(C(=O)c3ccc(Cl)cc3)Cc3ccc(CCP(=O)(O)O)cc32)cc1)N1CCCC1` [Compd. of Ex. 71-1, [2-(4-(4-chlorobenzoyl)-2-oxo-1-(4-(1-pyrrolidinecarbonyl)benzyl)-2,3,4,5-tetrahydro-1H-benzo[e][1,4]-diazepin-8-yl)ethyl]phosphonic acid], the “Human blood anticoagulating activity (pPT2)” value in the assay on blood plasma turned out to be 5.0. Also, the IC50 at human thrombin was 31600 nM; in assay [1] it was 25.1 nM.

On to `O=C(c1ccc(CN2C(=O)CN(C(=O)c3ccc(Cl)cc3)Cc3ccc(CCP(=O)(O)O)cc32)cc1)N1CC=CC1` [Compd. of Ex. 73, [2-(4-(4-chlorobenzoyl)-2-oxo-1-[4-(2,5-dihydro-1H-pyrrol-1-ylcarbonyl)benzyl]-2,3,4,5-tetrahydro-1H-benzo[e][1,4]-diazepin-8-yl)ethyl]phosphonic acid], for which the “Human blood anticoagulating activity (pPT2)” value in the assay with blood plasma was determined as 4.9. Besides, the IC50 on human thrombin is 39800 nM; in assay [1] it was 7.94 nM.

On to `O=C(c1ccc(CN2C(=O)CN(C(=O)c3ccc(Cl)cc3)Cc3ccc(CCCO)cc32)cc1)N1CC=CC1` [Compd. of Ex. 90], for which, in the assay with blood plasma, the “Human blood anticoagulating activity (pPT2)” value is recorded as 5.0. Besides, the IC50 on human thrombin was 79400 nM; in assay [1] it was 39.8 nM.

Consider `O=C(O)C(F)(F)F.O=C(c1ccc(CN2C(=O)CN(C(=O)c3ccc(Cl)cc3)Cc3ccc(CCCN4CCCCC4)cc32)cc1)N1CC=CC1` [Compd. of Ex. 93, 8-(3-piperidin-1-yl-propyl)-1-[4-(2,5-dihydro-1H-pyrrol-1-ylcarbonyl)benzyl]-4-(4-chlorobenzoyl)-1,3,4,5-tetrahydro-benzo[e][1,4]diazepin-2-on trifluoroacetate], for which the “Human blood anticoagulating activity (pPT2)” value with blood plasma is 5.5. Further, the values for the IC50 (at human thrombin; in assay [1]) were 63100 nM and 79.4 nM, respectively.

For `N=C(c1ccc(CN2C(=O)CN(C(=O)c3ccc(Cl)cc3)Cc3ccccc32)cc1)N1CC=CC1.O=C(O)C(F)(F)F` [Compd. of Ex. 107, 4-(4-chlorobenzoyl)-1-[4-(2,5-dihydro-1H-pyrrol-1-yl(imino)methyl)benzyl]-1,3,4,5-tetrahydrobenzo[e][1,4]-diazepin-2-on trifluoroacetate], the “Human blood anticoagulating activity (pPT2)” value in the assay with blood plasma is on record as 5.5. Besides, the figures for the IC50 (on human thrombin; in assay [1]) were over 100000 nM and 50.1 nM, respectively.
